Target: T1, mitochondrial diazepam binding inhibitor receptor (MDR) (Rattus norvegicus, UniProt P16257)
T1 construct: Crude mitochondria fractions prepared from rat cerebral cortex were used as a receptor sample; from tissue; host or cells: rat cerebral cortex, crude mitochondria fraction
Experiment: MDR receptor binding assay ([3H]PK11195 displacement, crude mitochondria fractions from rat cerebral cortex)
Settings: 50% inhibition of [3H]PK11195 (2 nM) binding; rat cerebral cortex crude mitochondria fraction, 4° C., 90 minutes
Procedure: Experiment [MDR Receptor Binding Assay]
Crude mitochondria fractions prepared from rat cerebral cortex were used as a receptor sample, and [^3H]PK11195 was used as a [^3H]-labeled ligand.
A binding assay using the [^3H]-labeled ligand was carried out according to the following method as described in Journal of Pharmacology and Experimental Therapeutics, 262, 971(1992).
Preparation of Receptor Sample: Rat cerebral cortex was homogenized using a Teflon-coated homogenizer in a 10 mM HEPES buffer (pH 7.4) containing 0.32 M sucrose in ten volumes of the wet weight. The homogenate was centrifuged at 900×g for 10 minutes, and the resulting supernatant was centrifuged at 9,000×g for 10 minutes. The precipitate was suspended in a HEPES buffer to give a protein concentration of 1 mg/ml, and centrifuged at 12,000×g for 10 minutes. The resulting precipitate was suspended in a 50 mM HEPES buffer (pH 7.4) to give a crude mitochondria fraction.
MDR Binding Assay:. Mitochondria sample (1.0 mg protein/ml), [^3H]PK11195 (2 nM) and the test drug were reacted at 4° C. for 90 minutes.
After completion of the reaction, the reaction mixture was filtered with suction through a glass filter (GF/B) treated with 0.3% polyethyleneimine, and the radioactivity on the filter was measured by a liquid scintillation spectrometer.
The binding at the reaction in the presence of 10 μM PK11195 was defined as non-specific binding of [^3H]PK11195, and the difference between total binding and non-specific binding was defined as specific binding.

T1 sequence (P16257 whole entry): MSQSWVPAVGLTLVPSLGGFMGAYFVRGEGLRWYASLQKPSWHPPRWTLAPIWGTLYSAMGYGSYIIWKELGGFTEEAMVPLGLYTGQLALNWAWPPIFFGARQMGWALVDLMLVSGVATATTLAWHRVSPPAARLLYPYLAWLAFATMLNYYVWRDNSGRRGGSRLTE

Row | Structure (SMILES) | IC50 [nM]
1 | CCCN(CCC)C(=O)c1cc2ccccc2n(Cc2ccccc2)c1=O [Compound 04] | 1.71
2 | CCCCCCN(CCCCCC)C(=O)c1cc2ccccc2n(Cc2ccccc2)c1=O [Compound 05] | 0.159
3 | CCCCCCCCCCN(CCCCCCCCCC)C(=O)c1cc2ccccc2n(Cc2ccccc2)c1=O [Compound 06] | 53.4
4 | CCCCCCN(CCCCCC)C(=O)c1cc2ccccc2n(Cc2ccccn2)c1=O [Compound 18] | 0.404
5 | CCCCCCN(CCCCCC)C(=O)c1cc2ccccc2n(Cc2cccnc2)c1=O [Compound 19, N,N-dihexyl-1-(3-picolyl)-1,2-dihydro-2-oxoquinoline-3-carboxamide] | 0.368
6 | CCCCCCN(CCCCCC)C(=O)c1cc2ccccc2n(Cc2ccncc2)c1=O [Compound 20] | 0.192
7 | CCCCCCN(CCCCCC)C(=O)c1cc2ccccc2n(CCc2ccccc2)c1=O [Compound 21] | 6.58
8 | CCCCCCN(CCCCCC)C(=O)c1cc2ccc(Cl)cc2n(Cc2ccccc2)c1=O [Compound 23] | 0.132

From patent US6380384B1, “1,2-dihydro-2-oxoquinoline derivatives” (Taisho Pharmaceutical Co., Ltd., priority 1997, dated 2002)
